Experimental data from publication PMC3798605, “Independent Pathways Can Transduce the Life-Cycle Differentiation Signal in Trypanosoma brucei” (PLoS Pathogens, 2013).

Target: T1, TbPTP1/TbPIP39 (Trypanosoma brucei, UniProt Q38AT7+Q38EW0)
T1 construct: gene Tb10.70.0070; His-TbPTP1 plus GST-TbPIP39 (recoded synthetic gene, pGEX4T1); biophysical preparations described in supplement
T1 sequence (Q38AT7 1-306): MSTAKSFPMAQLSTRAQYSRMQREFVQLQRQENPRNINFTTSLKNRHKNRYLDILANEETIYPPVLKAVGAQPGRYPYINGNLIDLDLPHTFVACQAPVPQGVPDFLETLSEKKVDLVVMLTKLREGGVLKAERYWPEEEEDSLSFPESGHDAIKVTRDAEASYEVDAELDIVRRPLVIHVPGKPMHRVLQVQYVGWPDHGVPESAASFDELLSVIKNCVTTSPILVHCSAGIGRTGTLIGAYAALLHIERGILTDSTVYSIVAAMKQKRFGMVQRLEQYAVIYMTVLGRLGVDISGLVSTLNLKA
T1 sequence (Q38EW0 1-343): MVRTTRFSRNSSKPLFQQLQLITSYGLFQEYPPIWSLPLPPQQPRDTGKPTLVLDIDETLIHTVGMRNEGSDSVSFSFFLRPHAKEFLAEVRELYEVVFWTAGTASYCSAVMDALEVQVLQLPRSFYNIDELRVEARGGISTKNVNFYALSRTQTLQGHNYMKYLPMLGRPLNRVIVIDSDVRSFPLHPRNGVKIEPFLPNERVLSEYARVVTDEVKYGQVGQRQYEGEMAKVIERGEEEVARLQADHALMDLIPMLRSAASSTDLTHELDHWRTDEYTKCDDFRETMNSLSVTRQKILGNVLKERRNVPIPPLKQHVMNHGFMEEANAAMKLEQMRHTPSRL
Assay: SPR, ligand-dependent TbPTP1-TbPIP39 interaction
Format: binding
Details: isocitrate-promoted complex formation, indirect evidence; TbPTP1 immobilised

O=C(O)C[C@H](C(=O)O)[C@@H](O)C(=O)O [isocitrate]
SPR, ligand-dependent TbPTP1-TbPIP39 interaction: isocitrate, which does not stimulate differentiation, also promoted the interaction between TbPTP1 and wild type
